In article PMC4884984, “Identification of approved and investigational drugs that inhibit hypoxia-inducible factor-1 signaling” (Oncotarget, 2016):
Like-named read-outs stand apart in the source and are kept apart here.

Key:
[1] = tested on: co-cultures of human aortic endothelial cells and human mesenchymal stem cells; test: In vitro angiogenesis co-culture assay (tube formation); type: cell-based; conditions: three-day exposure; for IC50 / Emax: Homo sapiens, 72 h, Table 1; for IC50: tube formation; for Emax: percentage of inhibition compared to DMSO controls, read-out: Angiogenesis Efficacy (converted); for Angiogenesis inhibition, result in words: co-culture assay
[2] = tested on: HIF-1α–NanoLuc HCT116 cells; test: Viability (Luc): CellTiter-Glo counter screen in HIF-1α–NanoLuc cells; type: cell-based, human; conditions: Table S7, 1% O2, 18 h
[3] = tested on: hypoxia response element-beta-lactamase (HRE–bla); test: HRE-bla reporter gene assay in ME-180 cells; type: cell-based, human; conditions: for Emax / IC50: Homo sapiens; for Emax: ME-180; for IC50: read-out: HRE-bla IC50
HRE–bla ME-180 cells = test: Viability (BLA): CellTiter-Glo counter screen in HRE–bla cells; type: cell-based, human; conditions: for IC50: Homo sapiens, ME-180, Table S7, confirmatory screen, 1% O2, 18 h; for Viability (BLA) confirmatory IC50: Table S7, 1% O2, 18 h
HCT116 cells = test: Cancer cell proliferation assay, HCT116; type: cell-based, human; conditions: Table 1, 72 h; for IC50: Homo sapiens, HCT-116, read-out: 72-hr Viability HCT116 IC50
ME-180 cells = test: Cancer cell proliferation assay, ME-180; type: cell-based; conditions: Homo sapiens, ME-180; Table 1; 72 h; read-out: 72-hr Viability ME-180 IC50
HIF-1α–NanoLuc = HIF-1α–NanoLuc reporter gene assay (qHTS primary and confirmatory screens); type: cell-based, human; conditions: Homo sapiens
hypoxia signaling genes = test: Real-time qPCR of human hypoxia signaling gene panel in ME-180 cells; conditions: 1% O2, 18 h, at IC50 concentration of HIF-1α–NanoLuc assay
[4] = Table 1, percentage of inhibition compared to DMSO controls, read-out: HRE-bla Efficacy (converted)
[5] = Table S7, confirmatory screen, read-out: HRE–bla confirmatory Efficacy
[6] = Table 1, ME-180 cells, 1% O2, 18 h
[7] = HCT-116, Table 1, HCT116 reporter cells, hypoxia 1% O2, 18 h, confirmatory, read-out: HIF-1α-NanoLuc IC50
[8] = Table 1, percentage of inhibition compared to DMSO controls, read-out: HIF-1α-NanoLuc Efficacy (converted)
[9] = Table S2, primary screen, read-out: Pathway inhibitors (primary screen) HIF-1α–NanoLuc Activity Efficacy
[10] = Table S2, primary screen, read-out: Pathway inhibitors (primary screen) HIF-1α–NanoLuc Activity IC50
[11] = Table S2, validation, read-out: Pathway inhibitors (validation) HIF-1α–NanoLuc Activity Efficacy
[12] = Table S7, confirmatory screen, read-out: HIF-1α–NanoLuc confirmatory Efficacy
[13] = Table S7, primary screen, read-out: HIF-1α–NanoLuc primary Efficacy

SMILES | IC50 [1] [nM] | IC50 (HCT116 cells) [nM] | IC50 (ME-180 cells) [nM] | IC50 (HIF-1α–NanoLuc; [7]) [nM] | Emax [1] [%] | Viability (Luc) confirmatory IC50 [2] | Emax [3, 4] [%] | Emax [3, 5] [%] | IC50 [3, 6] [nM] | IC50 (HRE–bla ME-180 cells) [nM] | Emax (HIF-1α–NanoLuc; [8]) [%] | Emax (HIF-1α–NanoLuc; [9]) [%] | IC50 (HIF-1α–NanoLuc; [10]) [nM] | Emax (HIF-1α–NanoLuc; [11]) [%] | Emax (HIF-1α–NanoLuc; [12]) [%] | Emax (HIF-1α–NanoLuc; [13]) [%] | Angiogenesis inhibition, result in words [1] | 72-hr Viability HCT116 IC50 (HCT116 cells) | Effect on expression of hypoxia-induced genes, in words (hypoxia signaling genes) | Viability (BLA) confirmatory IC50 (HRE–bla ME-180 cells) | also measured
O=C1c2c(O)ccc(O)c2C(=O)c2c(NCCNCCO)ccc(NCCNCCO)c21 [Mitoxantrone] | 4 ± 3 | 11100 ± 4790 | 110 ± 30 | 7650 ± 2130 | 101 | Inactive | 99 | 99 ± 10 | 860 ± 520 | 13400 ± 4400 | 110 | 80 | 2370 | 110 ± 5 | 110 ± 5 | 80 |  |  |  |  | IC50 (HIF-1α–NanoLuc; Table S1, primary screen, hypoxia 1% O2, 18 h, read-out: IC50 (primary screen, HIF-1α–NanoLuc assay)): 2380 nM; Emax (HIF-1α–NanoLuc; Table S1, primary screen, read-out: Efficacy (primary screen, HIF-1α–NanoLuc assay)): 80%
Oc1cccc(-c2nc(N3CCOCC3)c3oc4ncccc4c3n2)c1 [PI-103] | 320 ± 90 |  | 370 ± 20 | 920 ± 60 | 80 | Inactive | 62 | 62 ± 3 | 150 ± 20 | 770 ± 250 | 57 |  |  | 80 ± 3 | 57 ± 10 |  | submicromolar concentrations | Inactive | decreased the expression levels of all hypoxia-induced genes tested |  | IC50 (HIF-1α–NanoLuc; Table S2, validation, read-out: Pathway inhibitors (validation) HIF-1α–NanoLuc Activity IC50): 2770 ± 40 nM

Now from value to molecule, other results behind:

IC50 [1] [nM] | IC50 (HCT116 cells) [nM] | IC50 (ME-180 cells) [nM] | IC50 (HIF-1α–NanoLuc; [7]) [nM] | SMILES | Emax [1] [%] | Viability (Luc) confirmatory IC50 [2] | Emax [3, 4] [%] | Emax [3, 5] [%] | IC50 [3, 6] [nM] | IC50 (HRE–bla ME-180 cells) [nM] | Emax (HIF-1α–NanoLuc; [8]) [%] | Emax (HIF-1α–NanoLuc; [9]) [%] | IC50 (HIF-1α–NanoLuc; [10]) [nM] | Emax (HIF-1α–NanoLuc; [11]) [%] | Emax (HIF-1α–NanoLuc; [12]) [%] | Emax (HIF-1α–NanoLuc; [13]) [%] | Angiogenesis inhibition, result in words [1] | 72-hr Viability HCT116 IC50 (HCT116 cells) | Effect on expression of hypoxia-induced genes, in words (hypoxia signaling genes) | Viability (BLA) confirmatory IC50 (HRE–bla ME-180 cells) | also measured
110 ± 60 |  | 1820 ± 740 | 1580 ± 450 | COc1c(C)c2c(c(O)c1C/C=C(\C)CCC(=O)OCCN1CCOCC1)C(=O)OC2 [Mycophenolate mofetil] | 93 | Inactive | 58 | 58 ± 4 | 210 ± 50 | 530 | 59 |  |  |  | 59 ± 5 | 61 | submicromolar concentrations | Inactive |  |  | IC50 (HIF-1α–NanoLuc; Table S7, primary screen, read-out: HIF-1α–NanoLuc primary IC50): 330 nM
10 | 22800 ± 3890 | 270 ± 60 | 1490 ± 1300 | Cn1cnc2c(F)c(Nc3ccc(Br)cc3Cl)c(C(=O)NOCCO)cc21 [Selumetinib] | 92 | Inactive |  |  |  |  | 48 | 62 | 40 | 48 ± 10 | 48 ± 10 | 62 |  |  |  | Inactive | HRE-bla IC50 [3, 6]: Inactive
0.05 ± 0.05 | 640 ± 110 | 60 ± 20 | 2980 ± 4640 | CC(=O)Nc1cccc(-n2c(=O)n(C3CC3)c(=O)c3c(Nc4ccc(I)cc4F)n(C)c(=O)c(C)c32)c1 [Trametinib] | 89 | Inactive | 53 | 53 ± 9 | 20500 ± 8110 |  | 69 |  |  | 69 ± 5 | 69 ± 5 |  | picomolar IC50 value |  | decreased expression levels of HIF1A and many hypoxia responsive genes | Inactive | 
